The source made the active and inactive calls. No cut-off for these calls is given here.
Key:
DLD-1 [1] = assay: Inhibition of cell motility associated protein expression in human DLD1 cells assessed as effect on MMP2 expression at 5 to 20 ug/ml incubated for 48 hrs by Western blot analysis; type: functional, cell-based
HCT-116 [2] = assay: Induction of apoptosis in human HCT116 cells incubated for 48 hrs by annexin-V/PI staining based flow cyclometry; type: functional, cell-based
HCT-116 [3] = assay: Induction of apoptosis in human HCT116 cells assessed as early apoptotic cell level at 10 ug/ml incubated for 48 hrs by annexin-V/PI staining based flow cyclometry (reference value: 1.84%); type: functional
HCT-116 [4] = assay: Induction of mitochondrial membrane potential loss in human HCT116 cells at 5 to 20 ug/ml incubated for 48 hrs by RH123.dye based FCM analysis; type: functional, cell-based
[5] = Toxicity in BALB/c mouse xenografted with human HCT116 cells assessed as effect on body weight at 10 to 20 mg/kg, ip dosed daily for 21 days starting from 1 day post implantation and measured every three days; type: organism-based; conditions: in vivo
HCT-116 [6] = assay: Induction of ROS generation in human HCT116 cells at 5 to 20 ug/ml incubated for 48 hrs by DCFH-DA staining based FCM analysis; type: functional, cell-based
HCT-116 [7] = assay: Induction of apoptosis in human HCT116 cells assessed as reduction in Bcl2 protein expression incubated for 48 hrs by Western blot analysis; type: functional, cell-based
DLD-1 [8] = assay: Inhibition of cell migration in human DLD1 cells at 5 to 20 ug/ml incubated for 48 hrs by Transwell migration assay; type: functional, cell-based
HCT-116 [9] = assay: Induction of apoptosis in human HCT116 cells assessed as necrotic cell level at 10 ug/ml incubated for 48 hrs by annexin-V/PI staining based flow cyclometry (reference value: 4.9%); type: functional
HCT-116 [10] = assay: Antitumor activity against human HCT116 cells xenografted in BALB/c mouse assessed as reduction in Ki-67 positive cells in tumor at 10 to 20 mg/kg, ip dosed daily for 21 days starting from 1 day post implantation and measured every three days by immunohistochemistry analysis; type: functional, organism-based
HCT-116 [11] = assay: Induction of apoptosis in human HCT116 cells assessed as viable cell level at 10 ug/ml incubated for 48 hrs by annexin-V/PI staining based flow cyclometry (reference value: 81.8%); type: functional
DLD-1 [12] = assay: Inhibition of cell motility associated protein expression in human DLD1 cells assessed as effect on TIMP2 expression at 5 to 20 ug/ml incubated for 48 hrs by Western blot analysis; type: functional, cell-based
DLD-1 [13] = assay: Inhibition of cell motility associated protein expression in human DLD1 cells assessed as effect on MMP9 expression at 5 to 20 ug/ml incubated for 48 hrs by Western blot analysis; type: functional, cell-based
HCT-116 [14] = assay: Induction of apoptosis in human HCT116 cells assessed as necrotic cell level at 5 ug/ml incubated for 48 hrs by annexin-V/PI staining based flow cyclometry (reference value: 4.9%); type: functional
HCT-116 [15] = assay: Induction of apoptosis in human HCT116 cells assessed as viable cell level at 20 ug/ml incubated for 48 hrs by annexin-V/PI staining based flow cyclometry (reference value: 81.8%); type: functional
[16] = Toxicity in BALB/c mouse xenografted with human HCT116 cells assessed as induction of alterations in heart at 10 to 20 mg/kg, ip dosed daily for 21 days starting from 1 day post implantation and measured every three days by hematoxylin and eosin staining based histopathological analysis; type: organism-based; conditions: in vivo
HCT-116 [17] = assay: Induction of apoptosis in human HCT116 cells assessed as late apoptotic cell level at 20 ug/ml incubated for 48 hrs by annexin-V/PI staining based flow cyclometry (reference value: 5.11%); type: functional
HCT-116 [18] = assay: Induction of ROS generation in human HCT116 cells at 5 ug/ml incubated for 48 hrs by DCFH-DA staining based FCM analysis (reference value: 4.44%); type: functional
HCT-116 [19] = assay: Induction of mitochondrial membrane potential loss in human HCT116 cells at 20 ug/ml incubated for 48 hrs by RH123.dye based FCM analysis (reference value: 6.37%); type: functional
[20] = Toxicity in BALB/c mouse xenografted with human HCT116 cells assessed as induction of alterations in kidney at 10 to 20 mg/kg, ip dosed daily for 21 days starting from 1 day post implantation and measured every three days by hematoxylin and eosin staining based histopathological analysis; type: organism-based; conditions: in vivo
[21] = Toxicity in BALB/c mouse xenografted with human HCT116 cells assessed as induction of alterations in liver at 10 to 20 mg/kg, ip dosed daily for 21 days starting from 1 day post implantation and measured every three days by hematoxylin and eosin staining based histopathological analysis; type: organism-based; conditions: in vivo
HCT-116 [22] = assay: Induction of apoptosis in human HCT116 cells assessed as late apoptotic cell level at 5 ug/ml incubated for 48 hrs by annexin-V/PI staining based flow cyclometry (reference value: 5.11%); type: functional
SW480 = assay: Inhibition of colony formation of human SW480 cells assessed as reduction in clonogenic ability at 5 to 20 ug/ml incubated for 10 to 14 days by crystal violet staining based assay; type: functional, cell-based
HCT-116 [23] = assay: Induction of apoptosis in human HCT116 cells assessed as increase in cleaved capse-3 protein level incubated for 48 hrs by Western blot analysis; type: functional, cell-based
HCT-116 [24] = assay: Induction of apoptosis in human HCT116 cells assessed as early apoptotic cell level at 5 ug/ml incubated for 48 hrs by annexin-V/PI staining based flow cyclometry (reference value: 1.84%); type: functional
HCT-116 [25] = assay: Induction of mitochondrial membrane potential loss in human HCT116 cells at 10 ug/ml incubated for 48 hrs by RH123.dye based FCM analysis (reference value: 6.37%); type: functional
HCT-116 [26] = assay: Antitumor activity against human HCT116 cells xenografted in BALB/c mouse assessed as reduction in MMP2 positive cells in tumor at 10 to 20 mg/kg, ip dosed daily for 21 days starting from 1 day post implantation and measured every three days by immunohistochemistry analysis; type: functional, organism-based
HCT-116 [27] = assay: Induction of ROS generation in human HCT116 cells at 20 ug/ml incubated for 48 hrs by DCFH-DA staining based FCM analysis (reference value: 4.44%); type: functional
HCT-116 [28] = assay: Induction of apoptosis in human HCT116 cells assessed as increase in Bax protein expression incubated for 48 hrs by Western blot analysis; type: functional, cell-based
HCT-116 [29] = assay: Induction of mitochondrial membrane potential loss in human HCT116 cells at 5 ug/ml incubated for 48 hrs by RH123.dye based FCM analysis (reference value: 6.37%); type: functional
HCT-116 [30] = assay: Inhibition of colony formation of human HCT116 cells assessed as reduction in clonogenic ability at 5 to 20 ug/ml incubated for 10 to 14 days by crystal violet staining based assay; type: functional, cell-based
[31] = Toxicity in BALB/c mouse xenografted with human HCT116 cells assessed as induction of alterations in spleen at 10 to 20 mg/kg, ip dosed daily for 21 days starting from 1 day post implantation and measured every three days by hematoxylin and eosin staining based histopathological analysis; type: organism-based; conditions: in vivo
HCT-116 [32] = assay: Induction of ROS generation in human HCT116 cells at 10 ug/ml incubated for 48 hrs by DCFH-DA staining based FCM analysis (reference value: 4.44%); type: functional
[33] = Toxicity in BALB/c mouse xenografted with human HCT116 cells assessed as induction of alterations in lung at 10 to 20 mg/kg, ip dosed daily for 21 days starting from 1 day post implantation and measured every three days by hematoxylin and eosin staining based histopathological analysis; type: organism-based; conditions: in vivo
HCT-116 [34] = assay: Induction of apoptosis in human HCT116 cells assessed as necrotic cell level at 20 ug/ml incubated for 48 hrs by annexin-V/PI staining based flow cyclometry (reference value: 4.9%); type: functional
HCT-116 [35] = assay: Antitumor activity against human HCT116 cells xenografted in BALB/c mouse assessed as inhibition of tumor growth at 10 to 20 mg/kg, ip dosed daily for 21 days starting from 1 day post implantation and measured every three days; type: functional, organism-based
HCT-116 [36] = assay: Induction of apoptosis in human HCT116 cells assessed as viable cell level at 5 ug/ml incubated for 48 hrs by annexin-V/PI staining based flow cyclometry (reference value: 81.8%); type: functional
HCT-116 [37] = assay: Induction of apoptosis in human HCT116 cells assessed as early apoptotic cell level at 20 ug/ml incubated for 48 hrs by annexin-V/PI staining based flow cyclometry (reference value: 1.84%); type: functional
HCT-116 [38] = assay: Induction of apoptosis in human HCT116 cells assessed as late apoptotic cell level at 10 ug/ml incubated for 48 hrs by annexin-V/PI staining based flow cyclometry (reference value: 5.11%); type: functional
DLD-1 [39] = assay: Inhibition of colony formation of human DLD1 cells assessed as reduction in clonogenic ability at 5 to 20 ug/ml incubated for 10 to 14 days by crystal violet staining based assay; type: functional, cell-based
DLD-1 [40] = assay: Inhibition of cell invasion in human DLD1 cells at 5 to 20 ug/ml incubated for 48 hrs by crystal violet staining based inverted microscopy; type: functional

For `C=C(C)[C@@H]1CC[C@]2(C(=O)O)CC[C@]3(C)[C@H](CC[C@@H]4[C@@]5(C)CC[C@H](O)C(C)(C)[C@@H]5CC[C@]43C)[C@@H]12` [BETULINIC ACID], the inhibition (DLD-1 [1]) was “Active”, the Activity (HCT-116 [2]) was “Dose-dependent effect” and the Activity (HCT-116 [3]) was 2.33%. For the same compound, the Activity (HCT-116 [4]) was “Active”, the Activity [5] was “Non-Toxic” and the Activity (HCT-116 [6]) was “Dose-dependent effect”. For the same compound, the Activity (HCT-116 [7]) was “Dose-dependent effect”, the Activity (DLD-1 [8]) was “Active” and the Activity (HCT-116 [9]) was 10.9%. For the same compound, the inhibition (HCT-116 [10]) was “Active”, the Activity (HCT-116 [11]) was 73.8% and the inhibition (DLD-1 [12]) was “Active”. The inhibition (DLD-1 [13]) was “Active”, the Activity (HCT-116 [14]) was 7.94% and the Activity (HCT-116 [15]) was 53.5%. For the same compound, the Activity [16] was “Non-Toxic”, the Activity (HCT-116 [17]) was 25.2% and the Activity (HCT-116 [18]) was 9.58%. The Activity (HCT-116 [19]) was 21.3%, the Activity [20] was “Non-Toxic” and the Activity [21] was “Non-Toxic”. The Activity (HCT-116 [22]) was 11.5%, the inhibition (SW480) was “Active” and the Activity (HCT-116 [23]) was “Dose-dependent effect”. For the same compound, the Activity (HCT-116 [24]) was 1.63%, the Activity (HCT-116 [25]) was 19.5% and the inhibition (HCT-116 [26]) was “Active”. For the same compound, the Activity (HCT-116 [27]) was 18.9%, the Activity (HCT-116 [28]) was “Dose-dependent effect” and the Activity (HCT-116 [29]) was 17.2%. For the same compound, the inhibition (HCT-116 [30]) was “Active”, the Activity [31] was “Non-Toxic” and the Activity (HCT-116 [32]) was 13.6%. For the same compound, the Activity [33] was “Non-Toxic”, the Activity (HCT-116 [34]) was 14.5% and the TGI (HCT-116 [35]) was “Active”. The Activity (HCT-116 [36]) was 79%, the Activity (HCT-116 [37]) was 6.72% and the Activity (HCT-116 [38]) was 13%. The inhibition (DLD-1 [39]) was “Active” and the Activity (DLD-1 [40]) was “Active”.

From ChEMBL document CHEMBL4402509, “Betulinic acid induces apoptosis and inhibits metastasis of human colorectal cancer cells in vitro and in vivo” (Bioorg Med Chem, 2019)
